# Key:
# mGluR5 = target: T1, mGluR5 (Homo sapiens, UniProt P41594); experiment: radioligand binding assay, recombinant CHO-K1 cells
# T1 construct: host or cells: CHO-K1 cells
# Protocol: (§1) Nonspecific AMPA, kainate and NMDA binding assays were performed by Eurofins Discovery (Cerep) using rat cerebral cortex membranes and radiolabeled [^3H]AMPA, [^3H]kainic acid and [^3H]CGP 39653, respectively. All compounds were tested at a single concentration of 100 uM in triplicate. mGluR1, mGluR2, mGluR5 and GABAB binding assays were performed by Eurofins Discovery. mGluR1 assay was performed using rat cerebellum membranes and radiolabeled [^3H]quisqalic acid. mGluR2 assay was performed using recombinant Chem-1 cells and [^3H]LY341495. mGluR5 and GABAB binding assays were performed using recombinant CHO-K1 cells and […], respectively. All compounds were tested at a single concentration of 100 uM in triplicate.
# (§2) All receptor assays were performed exactly as described in Example 1. Functional assays of all GABAA, NMDA (GluN2A-GluN2D) and AMPA (GluA2) receptor subunits were performed by SB Drug Discovery as a part of their CNS discovery panel using FLIPR technology. All compounds were tested at 7 concentrations in triplicate and EC50/IC50 was determined where applicable. Functional GABAB assay was performed by Eurofins Discovery (Cerep) using Ca^2+-dependent fluorimetry in RBL cells expressing human GABAB (B1/B2) receptor. All compounds were tested at a single concentration of 100 uM in triplicate. Nonspecific AMPA, kainate and NMDA binding assays were performed by Eurofins Discovery (Cerep) using rat cerebral cortex membranes and radiolabeled [^3H]AMPA, [^3H]kainic acid and [^3H]CGP 39653, respectively. All compounds were tested at a single concentration of 100 uM in triplicate. mGluR1, mGluR2, mGluR5 and GABAB binding assays were performed by Eurofins Discovery. All compounds were tested at a single concentration of 100 uM in triplicate.
# GABAB (B1/B2) = target: T2, GABAB (B1/B2) (Homo sapiens, UniProt Q9UBS5); experiment: functional assay, Ca2+-dependent fluorimetry in RBL cells; type: cell-based; conditions: 100 μM
# T2 construct: host or cells: RBL cells
# T2 sequence (Q9UBS5 20-961): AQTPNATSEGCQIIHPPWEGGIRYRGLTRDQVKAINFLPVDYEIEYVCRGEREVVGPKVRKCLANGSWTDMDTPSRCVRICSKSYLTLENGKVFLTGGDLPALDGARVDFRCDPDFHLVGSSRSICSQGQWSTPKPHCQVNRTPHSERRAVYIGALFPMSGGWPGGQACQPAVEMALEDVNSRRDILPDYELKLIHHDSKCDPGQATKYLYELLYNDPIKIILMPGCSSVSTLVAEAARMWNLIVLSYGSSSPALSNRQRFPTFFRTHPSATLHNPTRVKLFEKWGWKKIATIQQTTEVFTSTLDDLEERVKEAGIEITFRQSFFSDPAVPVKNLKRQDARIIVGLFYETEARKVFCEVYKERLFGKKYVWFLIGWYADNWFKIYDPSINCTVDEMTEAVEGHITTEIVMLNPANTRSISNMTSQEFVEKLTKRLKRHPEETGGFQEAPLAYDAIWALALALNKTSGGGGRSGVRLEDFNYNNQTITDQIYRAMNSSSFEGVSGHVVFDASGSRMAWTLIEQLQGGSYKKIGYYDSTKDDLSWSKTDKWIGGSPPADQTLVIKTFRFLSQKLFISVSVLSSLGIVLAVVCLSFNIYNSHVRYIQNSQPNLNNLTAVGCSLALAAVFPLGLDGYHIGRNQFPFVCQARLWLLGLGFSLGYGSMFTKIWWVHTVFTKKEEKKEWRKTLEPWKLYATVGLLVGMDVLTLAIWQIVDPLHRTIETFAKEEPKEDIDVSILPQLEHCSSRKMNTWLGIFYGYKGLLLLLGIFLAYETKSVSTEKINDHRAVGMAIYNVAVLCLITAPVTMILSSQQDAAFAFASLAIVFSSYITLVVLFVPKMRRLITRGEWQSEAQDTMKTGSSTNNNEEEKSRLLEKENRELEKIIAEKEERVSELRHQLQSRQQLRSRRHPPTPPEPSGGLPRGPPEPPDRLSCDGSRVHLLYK
# T2 sequence (O75899 42-941 partner): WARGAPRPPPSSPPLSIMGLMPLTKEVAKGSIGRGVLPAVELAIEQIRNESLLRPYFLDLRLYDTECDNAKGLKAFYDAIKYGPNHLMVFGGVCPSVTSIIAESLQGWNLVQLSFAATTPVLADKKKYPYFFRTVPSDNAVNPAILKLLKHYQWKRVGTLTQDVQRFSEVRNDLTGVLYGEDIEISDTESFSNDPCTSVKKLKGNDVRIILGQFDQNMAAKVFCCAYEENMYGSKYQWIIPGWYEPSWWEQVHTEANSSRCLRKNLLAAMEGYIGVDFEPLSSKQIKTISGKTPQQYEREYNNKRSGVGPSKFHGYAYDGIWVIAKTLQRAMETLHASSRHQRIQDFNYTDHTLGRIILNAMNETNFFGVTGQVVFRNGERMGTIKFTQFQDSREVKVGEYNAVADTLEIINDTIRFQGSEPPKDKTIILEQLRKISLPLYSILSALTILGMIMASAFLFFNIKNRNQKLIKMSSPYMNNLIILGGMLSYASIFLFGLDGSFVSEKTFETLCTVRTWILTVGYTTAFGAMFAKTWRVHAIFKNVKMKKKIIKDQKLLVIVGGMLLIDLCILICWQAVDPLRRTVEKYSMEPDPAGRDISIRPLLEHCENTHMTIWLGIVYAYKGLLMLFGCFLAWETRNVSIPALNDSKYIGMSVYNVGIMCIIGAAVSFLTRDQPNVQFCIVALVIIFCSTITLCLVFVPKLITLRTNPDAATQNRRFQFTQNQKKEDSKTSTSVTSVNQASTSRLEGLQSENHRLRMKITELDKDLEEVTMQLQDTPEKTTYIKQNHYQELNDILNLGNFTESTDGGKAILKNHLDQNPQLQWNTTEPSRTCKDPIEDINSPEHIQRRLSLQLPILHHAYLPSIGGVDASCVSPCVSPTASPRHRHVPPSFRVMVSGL
# Protocol: Functional assays of all GABAA, NMDA (GluN2A-GluN2D) and AMPA (GluA2) receptor subunits were performed by SB Drug Discovery as a part of their CNS discovery panel using FLIPR technology. Briefly, receptor-expressing HEK 293 cell lines were incubated in a red membrane potential dye in HEPES:HBSS pH 7.4 buffer and the fluorescence (λex: 488, λex: 510-570) was monitored over time as the test compounds and/or reference compounds were added to the solution. In agonist assay, only test compounds were added. In positive allosteric modulator assay, cells were preincubated with test compounds and then low concentration (approximately EC20) of an appropriate agonist was added. In antagonist assay, cells were preincubated with test compounds and then high concentration (approximately EC80) of an appropriate agonist was added. For GABAA assays, GABA was used as the agonist, picrotoxin was used as the reference antagonist and allopregnanolone was used as the reference positive allosteric modulator (PAM). […] All compounds were tested at 7 concentration points in triplicate and EC50/IC50 was determined where applicable. […]
# All receptor assays were performed exactly as described in Example 1. […] All compounds were tested at 7 concentrations in triplicate and EC50/IC50 was determined where applicable. […]
# GABAA α3β1γ2 = target: T3, GABAA α3β1γ2 (Homo sapiens, UniProt P18505+P18507+P34903); experiment: FLIPR functional assay, HEK 293 cells (agonist/PAM/antagonist); type: cell-based; conditions: top concentration 1 mM, read-out: EC50, functional agonist receptor assay
# T3 construct: host or cells: HEK 293 (stably expressing)
# T3 sequence (P34903 29-492): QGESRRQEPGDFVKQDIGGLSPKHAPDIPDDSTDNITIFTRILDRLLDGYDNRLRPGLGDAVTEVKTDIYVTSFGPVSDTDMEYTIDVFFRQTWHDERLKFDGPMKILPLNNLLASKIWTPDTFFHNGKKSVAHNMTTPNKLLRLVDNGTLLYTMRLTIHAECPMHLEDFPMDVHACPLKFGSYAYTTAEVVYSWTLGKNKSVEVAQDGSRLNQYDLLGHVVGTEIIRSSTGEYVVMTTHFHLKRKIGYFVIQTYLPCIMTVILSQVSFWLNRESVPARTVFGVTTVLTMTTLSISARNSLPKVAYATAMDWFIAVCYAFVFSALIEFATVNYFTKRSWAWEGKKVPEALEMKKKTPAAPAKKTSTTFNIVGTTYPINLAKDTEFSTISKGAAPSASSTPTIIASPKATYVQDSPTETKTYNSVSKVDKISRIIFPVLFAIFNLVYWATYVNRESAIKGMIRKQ
# T3 sequence (P18505 26-474): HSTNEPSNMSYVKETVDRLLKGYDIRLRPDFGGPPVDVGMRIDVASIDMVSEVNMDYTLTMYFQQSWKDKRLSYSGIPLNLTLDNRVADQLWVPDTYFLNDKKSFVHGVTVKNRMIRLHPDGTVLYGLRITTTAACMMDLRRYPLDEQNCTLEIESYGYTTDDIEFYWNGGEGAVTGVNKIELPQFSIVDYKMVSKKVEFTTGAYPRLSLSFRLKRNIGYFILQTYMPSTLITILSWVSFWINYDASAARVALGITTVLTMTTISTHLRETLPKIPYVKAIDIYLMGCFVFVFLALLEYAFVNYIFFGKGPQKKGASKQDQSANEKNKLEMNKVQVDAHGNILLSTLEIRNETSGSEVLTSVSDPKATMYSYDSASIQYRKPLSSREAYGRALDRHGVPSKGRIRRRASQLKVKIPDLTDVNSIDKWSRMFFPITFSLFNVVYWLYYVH
# T3 sequence (P18507 40-475): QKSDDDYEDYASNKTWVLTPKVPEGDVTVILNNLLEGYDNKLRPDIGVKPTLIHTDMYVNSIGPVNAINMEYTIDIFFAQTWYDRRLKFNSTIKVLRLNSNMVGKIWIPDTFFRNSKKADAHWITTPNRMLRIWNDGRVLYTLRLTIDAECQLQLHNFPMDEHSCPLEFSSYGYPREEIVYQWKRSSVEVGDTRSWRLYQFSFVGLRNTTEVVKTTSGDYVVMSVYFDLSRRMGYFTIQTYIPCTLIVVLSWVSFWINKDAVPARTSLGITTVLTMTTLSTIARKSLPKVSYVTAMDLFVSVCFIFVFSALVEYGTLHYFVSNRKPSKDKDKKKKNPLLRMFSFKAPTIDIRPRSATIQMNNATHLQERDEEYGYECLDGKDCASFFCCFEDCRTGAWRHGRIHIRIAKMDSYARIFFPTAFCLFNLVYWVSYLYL
# Protocol: (§3) Functional assays of all GABAA, NMDA (GluN2A-GluN2D) and AMPA (GluA2) receptor subunits were performed by SB Drug Discovery as a part of their CNS discovery panel using FLIPR technology. Briefly, receptor-expressing HEK 293 cell lines were incubated in a red membrane potential dye in HEPES:HBSS pH 7.4 buffer and the fluorescence (λex: 488, λex: 510-570) was monitored over time as the test compounds and/or reference compounds were added to the solution. In agonist assay, only test compounds were added. In positive allosteric modulator assay, cells were preincubated with test compounds and then low concentration (approximately EC20) of an appropriate agonist was added. In antagonist assay, cells were preincubated with test compounds and then high concentration (approximately EC80) of an appropriate agonist was added. For GABAA assays, GABA was used as the agonist, picrotoxin was used as the reference antagonist and allopregnanolone was used as the reference positive allosteric modulator (PAM). For NMDA assays, a mixture of glutamate, glycine and CaCl2 was used as the agonist, MK801 was the reference antagonist and pregnenolone sulfate or GNE 9278 were used as reference PAMs. For AMPA assays, glutamate was used as the agonist, CNQX was the reference antagonist and cyclothiazide was used as the reference PAM. All compounds were tested at 7 concentration points in triplicate and EC50/IC50 was determined where applicable. Functional GABAB assay was performed by Eurofins Discovery (Cerep) using Ca^2+-dependent fluorimetry in RBL cells expressing human GABAB (B1/B2) receptor. All compounds were tested at a single concentration of 100 uM in triplicate.
# as §2
# GABAA α3β3γ2 = target: T4, GABAA α3β3γ2 (Homo sapiens, UniProt P18507+P28472+P34903); experiment: as above; type: cell-based; conditions: top concentration 1 mM; for EC50: read-out: EC50, functional agonist receptor assay
# T4 construct: host or cells: HEK 293 (stably expressing)
# T4 sequence (P34903 29-492): as the sequence (P34903 29-492) above
# T4 sequence (P28472 26-473): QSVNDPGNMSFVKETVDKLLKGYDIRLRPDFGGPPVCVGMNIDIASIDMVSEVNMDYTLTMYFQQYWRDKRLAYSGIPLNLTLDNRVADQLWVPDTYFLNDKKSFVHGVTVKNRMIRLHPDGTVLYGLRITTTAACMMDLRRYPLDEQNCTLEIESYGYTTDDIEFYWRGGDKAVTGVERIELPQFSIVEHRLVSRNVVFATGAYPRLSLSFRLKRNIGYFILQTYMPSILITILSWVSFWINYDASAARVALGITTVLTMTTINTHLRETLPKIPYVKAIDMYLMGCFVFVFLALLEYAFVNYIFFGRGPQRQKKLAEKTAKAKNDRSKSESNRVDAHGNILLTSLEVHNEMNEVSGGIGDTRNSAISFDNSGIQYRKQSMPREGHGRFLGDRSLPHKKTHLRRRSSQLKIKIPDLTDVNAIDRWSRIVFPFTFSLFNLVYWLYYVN
# T4 sequence (P18507 40-475): as the sequence (P18507 40-475) above
# Protocol: as §3, §2
# kainate nonspecific = experiment: radioligand binding assay, cerebral cortex membranes, [3H]kainic acid; conditions: kainate nonspec, rat; 100 μM
# Protocol: as §1
# (§4) All receptor assays were performed exactly as described in Example 1. Functional assays of all GABAA, NMDA (GluN2A-GluN2D) and AMPA (GluA2) receptor subunits were performed by SB Drug Discovery as a part of their CNS discovery panel using FLIPR technology. All compounds were tested at 7 concentrations in triplicate and EC50/IC50 was determined where applicable. Functional GABAB assay was performed by Eurofins Discovery (Cerep) using Ca^2+-dependent fluorimetry in RBL cells expressing human GABAB (B1/B2) receptor. All compounds were tested at a single concentration of 100 uM in triplicate. […]
# AMPA nonspecific = experiment: radioligand binding assay, cerebral cortex membranes, [3H]AMPA; conditions: AMPA nonspec, rat; 100 μM
# Protocol: as §1, §4
# NMDA nonspecific = experiment: radioligand binding assay, cerebral cortex membranes, [3H]CGP 39653; conditions: NMDA nonspec, rat; 100 μM
# Protocol: as §1, §4
# [1] = test system: mouse cerebral synaptosomes; experiment: Potassium-induced neurotransmitter release assay; type: cell-based; conditions: preloaded with 100 μM for 15 min at 37° C., high-potassium depolarization
# Protocol: To each tube, 2.5 μL of a test compound solution (final concentration 100 μM) in Buffer KRP or Buffer KRP alone were added. Samples were incubated for 15 min at 37° C., briefly chilled on ice, and then immediately centrifuged and washed twice with Buffer KRP. The resulting pellets were then resuspended in either Buffer KRP (500 μL) or Buffer K-KRP (500 μL). Samples were immediately centrifuged or incubated for 5, 10 or 15 min at 37° C., then centrifuged and washed with Buffer KRP. Resulting pellets were resuspended in 400 μL of 60% ACN containing 2.5 μM Glu-d5 and 2.5 μM Gln-d5 as internal standards.
# Synaptosome uptake and high potassium-induced release assays were performed as described in Example 1. Uptake assays used 250 μL aliquots of the synaptosome suspension transferred to a pre-chilled 0.8 mL 96 well plate. 5 μL of a test compound solution (0.5 mM; final concentration: 10 μM to compare directly to our previous work was added to each well and incubated at 0° C. or 37° C. After 10, 20 or 30 min, samples were chilled on ice and immediately sedimented (2,500 g for 15 min at 4° C.) and washed with Buffer S (0.5 mL, ×2). Resulting pellets were resuspended in 200 μL of 60% ACN containing 5 μM GABA-d6 and stored at −80° C. until analysis. Potassium-induced release assay used 500 μL aliquots of the synaptosome suspension transferred to pre-chilled microcentrifuge tubes. 2.5 μL of a test compound solution (20 mM; final concentration: 100 μM) in Buffer KRP was added to each tube and incubated for 15 min at 37° C., briefly chilled on ice, and then immediately sedimented (8,000 g for 4 min at 4° C.) and washed with Buffer KRP, followed by centrifugation, twice. The resulting pellets were resuspended in 500 μL of Buffer KRP or Buffer K-KRP and incubated for 5, 10 or 15 min at 37° C., sedimented (8,000 g for 4 min at 4° C.), and washed with Buffer KRP. Resulting pellets were resuspended in 400 μL of 60% ACN containing 2.5 μM GABA-d6 as internal standard and stored at −80° C. until analysis.
# T1 sequence (P41594 21-1212): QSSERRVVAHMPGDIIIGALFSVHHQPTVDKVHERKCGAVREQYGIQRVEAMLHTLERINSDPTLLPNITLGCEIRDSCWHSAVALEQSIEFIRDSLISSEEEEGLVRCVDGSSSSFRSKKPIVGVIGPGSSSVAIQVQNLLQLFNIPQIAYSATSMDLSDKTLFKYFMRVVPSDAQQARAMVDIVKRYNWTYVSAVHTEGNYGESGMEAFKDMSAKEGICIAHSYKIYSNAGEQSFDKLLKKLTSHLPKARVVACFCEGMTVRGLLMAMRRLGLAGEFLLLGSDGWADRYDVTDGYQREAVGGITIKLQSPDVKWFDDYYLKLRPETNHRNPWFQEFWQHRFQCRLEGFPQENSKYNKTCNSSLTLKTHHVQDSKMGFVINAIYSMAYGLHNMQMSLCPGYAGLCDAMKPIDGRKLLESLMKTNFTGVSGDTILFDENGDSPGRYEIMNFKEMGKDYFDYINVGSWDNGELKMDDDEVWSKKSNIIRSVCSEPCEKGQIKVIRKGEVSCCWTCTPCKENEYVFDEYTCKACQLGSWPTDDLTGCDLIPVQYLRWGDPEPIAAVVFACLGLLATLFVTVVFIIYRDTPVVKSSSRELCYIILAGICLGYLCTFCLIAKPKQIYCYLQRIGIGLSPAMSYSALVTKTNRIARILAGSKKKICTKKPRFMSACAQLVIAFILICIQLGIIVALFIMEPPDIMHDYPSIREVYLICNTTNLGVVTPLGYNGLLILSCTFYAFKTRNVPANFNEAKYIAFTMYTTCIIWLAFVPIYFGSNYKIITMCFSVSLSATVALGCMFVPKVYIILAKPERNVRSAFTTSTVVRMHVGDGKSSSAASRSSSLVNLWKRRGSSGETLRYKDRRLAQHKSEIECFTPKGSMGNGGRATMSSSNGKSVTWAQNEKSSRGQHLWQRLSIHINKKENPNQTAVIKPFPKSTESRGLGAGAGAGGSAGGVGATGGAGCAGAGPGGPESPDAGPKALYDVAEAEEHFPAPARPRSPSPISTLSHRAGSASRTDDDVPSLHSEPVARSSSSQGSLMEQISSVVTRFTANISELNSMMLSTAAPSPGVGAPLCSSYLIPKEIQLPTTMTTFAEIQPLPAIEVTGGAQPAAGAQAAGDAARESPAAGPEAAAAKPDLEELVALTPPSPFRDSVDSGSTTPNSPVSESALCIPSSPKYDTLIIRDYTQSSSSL
Compound,inhibition at 100 µM (mGluR5; first mGluR5 row of Table 5) [%],inhibition at 100 µM (mGluR5; second mGluR5 row of Table 5) [%],% of agonist response (GABAB (B1/B2)) [%],EC50 (GABAA α3β1γ2) [µM],EC50 (GABAA α3β3γ2) [µM],% of radioligand binding inhibition (kainate nonspecific) [%],% of radioligand binding inhibition (AMPA nonspecific) [%],% of radioligand binding inhibition (NMDA nonspecific) [%],potassium-induced release from synaptosomes [1],"IC50 (GABAA α3β3γ2; read-out: IC50, functional antagonist receptor assay) [µM]"
"C[C@@](N)(CCC(=O)O)C(=O)O [(R)-2MeGlu, (R)-2-methylglutamic acid]",-20,-2,0,742,959,18,15,8,not significantly altered by depolarization,–
"C[C@](N)(CCC(=O)O)C(=O)O [(S)-2MeGlu, (S)-2-methylglutamic acid]",11,-4,0,782,725,20,12,3,released upon depolarization,978

# — patent publication US12589087B2, “Enantiomer selective action on neurotransmission” (The Board of Trustees of the Leland Stanford Junior …, priority 2021, dated 2026)
